Test results reported in patent publication US20170037446A1, “METHOD FOR THE MICROBIOLOGICAL DETERMINATION OF TRACES OF A[…] LOW VOLUME BIOLOGICAL SAMPLES” (UNIVERSIDAD DE SANTIAGO DE CHILE, priority 2013, published 2017).

Assay: Pharmacokinetic study of minocycline in CSF of rats, quantified by the microbiological method with 4PL curve fit
Assay type: in vivo
Settings: normal Sprague-Dawley rats, intra CSF injection of 1 mg/mL MC solution
Method: A curve representing the percentage of bacterial growth inhibition versus antibiotic concentration applied to each well was also obtained.. Subsequently, using a curve fit analysis called “Four Parameter Curve Logistic (4PL)”, the values of antibiotic concentrations in the biological sample were obtained.
Cerebrospinal fluid (CSF) collection: It was collected by transcutaneous cisternal magna puncture. Minocycline injections were performed by the same route.
Curve fitting: Four Parameter Logistic Curve (4PL) analysis was applied to minocycline antibiotic obtained from FIG. 1:
Minocycline (MC), an antibiotic belonging to the family of tetracyclines, was used to carry out pharmacokinetic studies of CSF in Sprague-Dawley rats. Briefly, normal rats were injected via intra CSF an MC solution of 1 mg/mL, for subsequent sampling of CSF at time zero, 1, 10 and 18 hours. […] At 18 hours it is still possible to detect a concentration of 69 ng/mL (FIG. 4).

CN(C)c1ccc(O)c2c1C[C@H]1C[C@H]3[C@H](N(C)C)C(O)=C(C(N)=O)C(=O)[C@@]3(O)C(O)=C1C2=O [Minocycline]
detection of MC in CSF (CSF sampled at time zero, 1, 10 and 18 hours): detected at all times
concentration at 18 h (rat, cerebrospinal fluid (CSF), other: intra CSF (transcutaneous cisternal magna puncture), CSF sampled at 18 hours (FIG. 4)): 69 ng/mL
